The text below walks through data of US10894784B2, “Heteroarylbenzimidazole compounds” (BAYER PHARMA AKTIENGESELLSCHAFT, priority 2015, dated 2021).

Structures are written as SMILES.

TBK1, sequence (Q9UHD2 whole entry): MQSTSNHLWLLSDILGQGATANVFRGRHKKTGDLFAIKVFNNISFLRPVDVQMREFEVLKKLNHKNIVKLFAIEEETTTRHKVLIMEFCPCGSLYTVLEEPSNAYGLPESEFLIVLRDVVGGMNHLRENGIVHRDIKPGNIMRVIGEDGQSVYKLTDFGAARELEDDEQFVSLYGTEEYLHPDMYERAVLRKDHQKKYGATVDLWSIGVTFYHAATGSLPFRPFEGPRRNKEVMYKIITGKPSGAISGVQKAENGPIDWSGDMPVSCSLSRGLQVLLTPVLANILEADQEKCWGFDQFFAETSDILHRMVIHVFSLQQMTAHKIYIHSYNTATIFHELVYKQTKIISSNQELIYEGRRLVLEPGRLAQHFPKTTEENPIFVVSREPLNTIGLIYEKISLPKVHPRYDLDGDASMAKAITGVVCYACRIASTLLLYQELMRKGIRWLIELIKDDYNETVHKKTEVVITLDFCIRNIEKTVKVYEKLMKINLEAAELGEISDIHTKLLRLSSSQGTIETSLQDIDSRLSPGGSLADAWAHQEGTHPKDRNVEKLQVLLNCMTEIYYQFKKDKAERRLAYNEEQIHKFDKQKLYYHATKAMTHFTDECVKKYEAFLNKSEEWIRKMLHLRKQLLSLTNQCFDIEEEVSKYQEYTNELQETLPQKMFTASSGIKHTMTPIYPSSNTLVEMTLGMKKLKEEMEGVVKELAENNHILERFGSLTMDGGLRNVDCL

The test has as its target TBK1 (Homo sapiens (Human), UniProt Q9UHD2). Kind of test: TBK1 low ATP kinase assay (in vitro assay 1). It counts as biochemical. Conditions: in vitro assay 1, read-out: TBK1 low ATP kinase assay IC50.
Regarding `O=C(CC1CC1)N1CCN(Cc2ccnc(Nc3nc4ccc(-c5ccncn5)cc4[nH]3)c2)CC1` [Example 23.01.01, 2-cyclopropyl-1-{4-[(2-{[6-(pyrimidin-4-yl)-1H-benzimidazol-2-yl]amino}pyridin-4-yl)methyl]piperazin-1-yl}ethanone], the IC50 is 33.4 nM.
As for `CC(c1ccnc(Nc2nc3ccc(-c4cc(N5CCOCC5)ncn4)cc3[nH]2)c1)N1CCN(C(=O)CC(F)(F)F)CC1` (single isomer, unassigned) [Example 118.03, 3,3,3-trifluoro-1-(4-{(1R or 1S)-1-[2-({6-[6-(morpholin-4-yl)pyrimidin-4-yl]-1H-benzimidazol-2-yl}amino)pyridin-4-yl]ethyl}piperazin-1-yl)propan-1-one], the figure is 1.4 nM; as for `CCN(CC)C(=O)N1CCN(Cc2ccnc(Nc3nc4ccc(-c5ncncc5OC)cc4[nH]3)c2)CC1` [Example 35.01.04, N,N-diethyl-4-[(2-{[6-(5-methoxypyrimidin-4-yl)-1H-benzimidazol-2-yl]amino}pyridin-4-yl)methyl]piperazine-1-carboxamide], 26.9 nM.
As to `O=C(CC1CC1)N1CCN(Cc2ccnc(Nc3nc4ccc(-c5ccnc(C(F)(F)F)n5)cc4[nH]3)c2)CC1` [Example 27.03, 2-cyclopropyl-1-(4-{[2-({6-[2-(trifluoromethyl)pyrimidin-4-yl]-1H-benzimidazol-2-yl}amino)pyridin-4-yl]methyl}piperazin-1-yl)ethanone], the IC50 turned out to be 203 nM.
Consider `Cc1noc(-c2ccc3nc(Nc4cc(CN5C[C@@H](C)N(C(=O)CC6CC6)C[C@@H]5C)ccn4)[nH]c3c2)n1` [Example 16.02.03, 2-cyclopropyl-1-{(2R,5S)-2,5-dimethyl-4-[(2-{[6-(3-methyl-1,2,4-oxadiazol-5-yl)-1H-benzimidazol-2-yl]amino}pyridin-4-yl)methyl]piperazin-1-yl}ethanone], for which the half-inhibitory concentration (IC50) amounted to 227 nM.
For `Cc1noc(-c2ccc3nc(Nc4cc(CN5CCN(c6ncncn6)CC5)ccn4)[nH]c3c2)n1` [Example 101.27, 6-(3-methyl-1,2,4-oxadiazol-5-yl)-N-(4-{[4-(1,3,5-triazin-2-yl)piperazin-1-yl]methyl}pyridin-2-yl)-1H-benzimidazol-2-amine] the value was 350 nM; for `COc1c(NC2CC2)ncnc1-c1ccc2nc(Nc3cc(CN4CCN(C(=O)OC(C)(C)C)CC4)ccn3)[nH]c2c1` [Example 108.01, tert-butyl 4-{[2-({6-[6-(cyclopropylamino)-5-methoxypyrimidin-4-yl]-1H-benzimidazol-2-yl}amino)pyridin-4-yl]methyl}piperazine-1-carboxylate], 35 nM; for `CC(C)Oc1cc(-c2ccc3nc(Nc4cc(CN5CCN(C(=O)OC(C)(C)C)CC5)ccn4)[nH]c3c2)ncn1` [Example 160.01, tert-butyl 4-{[2-({6-[6-(propan-2-yloxy)pyrimidin-4-yl]-1H-benzimidazol-2-yl}amino)pyridin-4-yl]methyl}piperazine-1-carboxylate], 64 nM.
As for `CC(C)(C)OC(=O)N1CCN(Cc2ccnc(Nc3nc4ccc(-c5ncnc(NCC6CC6)c5F)cc4[nH]3)c2)CC1` [Example 195.01, tert-butyl 4-({2-[(6-{6-[(cyclopropylmethyl)amino]-5-fluoropyrimidin-4-yl}-1H-benzimidazol-2-yl)amino]pyridin-4-yl}methyl)piperazine-1-carboxylate], the figure is 105 nM; as for `Cc1noc(-c2ccc3nc(Nc4cc(CN5C[C@@H](C)N(C(=O)C6CC6)C[C@@H]5C)ccn4)[nH]c3c2)n1` [Example 16.02.04, cyclopropyl{(2R,5S)-2,5-dimethyl-4-[(2-{[6-(3-methyl-1,2,4-oxadiazol-5-yl)-1H-benzimidazol-2-yl]amino}pyridin-4-yl)methyl]piperazin-1-yl}methanone], 268 nM; as for `CC(c1ccnc(Nc2nc3ccc(-c4cc(OCC(F)(F)C(F)(F)F)ncn4)cc3[nH]2)c1)N1CCN(C(=O)[C@@H]2CC2(F)F)CC1` (single isomer, unassigned) [Example 166.05, ((1RS)-2,2-difluorocyclopropyl)(4-{(1R or 1S)-1-[2-({6-[6-(2,2,3,3,3-pentafluoropropoxy)pyrimidin-4-yl]-1H-benzimidazol-2-yl}amino)pyridin-4-yl]ethyl}piperazin-1-yl)methanone], 34.2 nM.
For `CCC(C)c1noc(-c2ccc3nc(Nc4cc(CN5CCN(C(=O)C6CC6)CC5)ccn4)[nH]c3c2)n1` (centres unmarked) [Example 20.01, (4-{[2-({6-[3-(butan-2-yl)-1,2,4-oxadiazol-5-yl]-1H-benzimidazol-2-yl}amino)pyridin-4-yl]methyl}piperazin-1-yl)(cyclopropyl)methanone], the IC50 was found to be 685 nM.
As for `COc1cncnc1-c1ccc2nc(Nc3cc(CN4CCN(C(=O)N5CCCC5)CC4)ccn3)[nH]c2c1` [Example 35.01.05, {4-[(2-{[6-(5-methoxypyrimidin-4-yl)-1H-benzimidazol-2-yl]amino}pyridin-4-yl)methyl]piperazin-1-yl}(pyrrolidin-1-yl)methanone], the figure is 48 nM; as for `Cc1noc(-c2ccc3nc(Nc4cc(CN5CCN(C(=O)c6ccccc6)CC5)ccn4)[nH]c3c2)n1` [Example 101.10, {4-[(2-{[6-(3-methyl-1,2,4-oxadiazol-5-yl)-1H-benzimidazol-2-yl]amino}pyridin-4-yl)methyl]piperazin-1-yl}(phenyl)methanone], 180 nM.
For `O=C(CC(F)(F)F)N1CCN(Cc2ccnc(Nc3nc4ccc(-c5nc(C6CC6)no5)cc4[nH]3)c2)CC1` [Example 17.02, 1-{4-[(2-{[6-(3-cyclopropyl-1,2,4-oxadiazol-5-yl)-1H-benzimidazol-2-yl]amino}pyridin-4-yl)methyl]piperazin-1-yl}-3,3,3-trifluoropropan-1-one] the value was 64.9 nM; for `CCOc1c(-c2ccncc2OC)ccc2nc(Nc3cc(CN4CCN(C(=O)CC5CC5)CC4)ccn3)[nH]c12` [Example 51.02, 2-cyclopropyl-1-{4-[(2-{[7-ethoxy-6-(3-methoxypyridin-4-yl)-1H-benzimidazol-2-yl]amino}pyridin-4-yl)methyl]piperazin-1-yl}ethanone], 270 nM.
As for `Cc1cc(-c2ccc3nc(Nc4cc(CN5CCN(C(=O)OC(C)(C)C)CC5)ccn4)[nH]c3c2)cc(C#N)n1` [Example 136.01, tert-butyl 4-[(2-{[6-(2-cyano-6-methylpyridin-4-yl)-1H-benzimidazol-2-yl]amino}pyridin-4-yl)methyl]piperazine-1-carboxylate], the IC50 was 53 nM.
For `COc1cnc(C(=O)N(C)C)cc1-c1ccc2nc(Nc3cc(CN4CCN(C(=O)C5CC5)CC4)ccn3)[nH]c2c1` [Example 08.01, 4-{2-[(4-{[4-(cyclopropylcarbonyl)piperazin-1-yl]methyl}pyridin-2-yl)amino]-1H-benzimidazol-6-yl}-5-methoxy-N,N-dimethylpyridine-2-carboxamide] the value was 624 nM; for `O=C(C1CC1)N1CCN(Cc2ccnc(Nc3nc4ccc(-c5ccn(CC6CC6)c(=O)c5)cc4[nH]3)c2)CC1` [Example 44.02, 4-{2-[(4-{[4-(cyclopropylcarbonyl)piperazin-1-yl]methyl}pyridin-2-yl)amino]-1H-benzimidazol-6-yl}-1-(cyclopropylmethyl)pyridin-2(1H)-one], 66.8 nM.
As for `CC(c1ccnc(Nc2nc3ccc(-c4cnn(CC5CC5)c4)c(F)c3[nH]2)c1)N1CCN(C(=O)OC(C)(C)C)CC1` (single isomer, unassigned) [Example 121.01, tert-butyl 4-{(1R or 1S)-1-[2-({6-[1-(cyclopropylmethyl)-1H-pyrazol-4-yl]-7-fluoro-1H-benzimidazol-2-yl}amino)pyridin-4-yl]ethyl}piperazine-1-carboxylate], the figure is 11 nM; as for `Clc1ccccc1N1CCN(Cc2ccnc(Nc3nc4ccc(-c5noc(C6CC6)n5)cc4[nH]3)c2)CC1` [Example 22.01, N-(4-{[4-(2-chlorophenyl)piperazin-1-yl]methyl}pyridin-2-yl)-6-(5-cyclopropyl-1,2,4-oxadiazol-3-yl)-1H-benzimidazol-2-amine], 481 nM.
With `CC(c1ccnc(Nc2nc3ccc(-c4cc(N5CCC5)ncn4)cc3[nH]2)c1)N1CCN(C(=O)C2CC2)CC1` (single isomer, unassigned) [Example 115.03, (4-{(1R or 1S)-1-[2-({6-[6-(azetidin-1-yl)pyrimidin-4-yl]-1H-benzimidazol-2-yl}amino)pyridin-4-yl]ethyl}piperazin-1-yl)(cyclopropyl)methanone], the IC50 turned out to be 0.62 nM.
For `CC(c1ccnc(Nc2nc3ccc(-c4cc(N5CCCC5)ncn4)cc3[nH]2)c1)N1CCN(C(=O)CC(F)(F)F)CC1` (single isomer, unassigned) [Example 117.03, 3,3,3-trifluoro-1-(4-{(1R or 1S)-1-[2-({6-[6-(pyrrolidin-1-yl)pyrimidin-4-yl]-1H-benzimidazol-2-yl}amino)pyridin-4-yl]ethyl}piperazin-1-yl)propan-1-one] the value was 0.49 nM; for `COc1cc(-c2ccc3nc(Nc4cc(C(C)N5CCN(C(=O)C6CC6)CC5)ccn4)[nH]c3c2)ncn1` (racemic) [Example 34.02.02, (rac)-cyclopropyl{4-[1-(2-{[6-(6-methoxypyrimidin-4-yl)-1H-benzimidazol-2-yl]amino}pyridin-4-yl)ethyl]piperazin-1-yl}methanone], 9.1 nM; for `Cc1cc(-c2ccc3nc(Nc4cc(C(C)N5CCN(C(=O)OC(C)(C)C)CC5)ccn4)[nH]c3c2F)ncn1` (single isomer, unassigned) [Example 172.01, tert-butyl 4-[(1R or 1S)-1-(2-{[7-fluoro-6-(6-methylpyrimidin-4-yl)-1H-benzimidazol-2-yl]amino}pyridin-4-yl)ethyl]piperazine-1-carboxylate], 39.8 nM.
For `CC(c1ccnc(Nc2nc3ccc(-c4cnn(CC5CC5(F)F)c4)cc3[nH]2)c1)N1CCN(C(=O)C2CC2)CC1` (single isomer, unassigned) [Example 55.03, cyclopropyl{4-[(1R or 1S)-1-(2-{[6-(1-{[(1RS)-2,2-difluorocyclopropyl]methyl}-1H-pyrazol-4-yl)-1H-benzimidazol-2-yl]amino}pyridin-4-yl)ethyl]piperazin-1-yl}methanone] the value was 0.564 nM.
